# US10597390B2, “Indoles for use in influenza virus infection” (Janssen Sciences Ireland UC, priority 2014, dated 2020)
# Columns and labels:
# [1] = tested on: influenza virus A/Taiwan/1/86 (H1N1); assay: organism not typed; type: cell-based; conditions: MDCK, 72 h, CPE in MDCK cells, three days post-virus exposure, ATPlite
# in vitro = conditions: dog, TOX MDCK CC50
Structure (SMILES),IC50 [1] [nM],CC50 at 3 days (in vitro) [nM],melting point [°C]
Cn1cc(C(=O)N[C@@H]2CCC[C@H](Nc3nc(-c4c[nH]c5c(F)cc(Cl)cc45)ncc3F)C2)cn1 [Compound 52],2,4400,286.8
O=C(N[C@@H]1CCC[C@H](Nc2nc(-c3c[nH]c4c(F)cc(Cl)cc34)ncc2F)C1)c1cncnc1 [Compound 53],20,> 25000,> 300
Nc1n[nH]c(C(=O)N[C@@H]2CCC[C@H](Nc3nc(-c4c[nH]c5c(F)cc(Cl)cc45)ncc3F)C2)n1 [Compound 54],4,10400,293.5
O=C(N[C@@H]1CCC[C@H](Nc2nc(-c3c[nH]c4c(F)cc(Cl)cc34)ncc2F)C1)c1ncc(F)cc1F [Compound 55],25,6600,> 300
CN(C)c1ccnc(C(=O)N[C@@H]2CCC[C@H](Nc3nc(-c4c[nH]c5c(F)cc(Cl)cc45)ncc3F)C2)c1 [Compound 56],6,10700,281.8
Cn1cc(Br)nc1C(=O)N[C@@H]1CCC[C@H](Nc2nc(-c3c[nH]c4c(F)cc(Cl)cc34)ncc2F)C1 [Compound 57],10,5000,214.9
O=C(N[C@@H]1CCC[C@H](Nc2nc(-c3c[nH]c4c(F)cc(Cl)cc34)ncc2F)C1)c1ncc[nH]1 [Compound 58],1,3500,> 300
Nc1cc(C(=O)N[C@@H]2CCC[C@H](Nc3nc(-c4c[nH]c5c(F)cc(Cl)cc45)ncc3F)C2)n[nH]1 [Compound 59],2,7800,245.2
CCn1nccc1C(=O)N[C@@H]1CCC[C@H](Nc2nc(-c3c[nH]c4c(F)cc(Cl)cc34)ncc2F)C1 [Compound 60],2,> 25000,> 300
Cn1nccc1C(=O)N[C@@H]1CCC[C@H](Nc2nc(-c3c[nH]c4c(F)cc(Cl)cc34)ncc2F)C1 [Compound 61],1,> 25000,> 300
CN1CCC[C@@H]1C(=O)N[C@@H]1CCC[C@H](Nc2nc(-c3c[nH]c4c(F)cc(Cl)cc34)ncc2F)C1 [Compound 62],730,6900,196.5
O=C(N[C@@H]1CCC[C@H](Nc2nc(-c3c[nH]c4c(F)cc(Cl)cc34)ncc2F)C1)c1c[nH]cn1 [Compound 63],2,8900,245
Cn1cncc1C(=O)N[C@@H]1CCC[C@H](Nc2nc(-c3c[nH]c4c(F)cc(Cl)cc34)ncc2F)C1 [Compound 64],3,> 25000,291.8
Nc1nccc(C(=O)N[C@@H]2CCC[C@H](Nc3nc(-c4c[nH]c5c(F)cc(Cl)cc45)ncc3F)C2)n1 [Compound 65],3,> 25000,261.7
Nc1cc(C(=O)N[C@@H]2CCC[C@H](Nc3nc(-c4c[nH]c5c(F)cc(Cl)cc45)ncc3F)C2)ncn1 [Compound 66],3,5200,152.4
Cn1cc(C(=O)N[C@@H]2CCC[C@H](Nc3nc(-c4c[nH]c5c(F)cc(Cl)cc45)ncc3F)C2)nn1 [Compound 67],12,840,283
Cn1nc(N)cc1C(=O)N[C@@H]1CCC[C@H](Nc2nc(-c3c[nH]c4c(F)cc(Cl)cc34)ncc2F)C1 [Compound 68],3,21000,267.2
O=C(N[C@@H]1CCC[C@H](Nc2nc(-c3c[nH]c4c(F)cc(Cl)cc34)ncc2F)C1)c1ncn[nH]1 [Compound 69],2,8400,293.5
